In patent US12662489B2 (Sitryx Therapeutics Limited, priority 2023, dated 2026):

Tests used:
[1] = molecular target: T1, MTHFD1 recombinant human enzyme (Homo sapiens, UniProt P11586); experiment: MTHFD1 inhibition assay (NAD(P)H-Glo luminescence); conditions: MTHFD1 IC50, recombinant human enzyme 200 nM, NADP, band
T1 sequence (P11586 2-291 limits assumed): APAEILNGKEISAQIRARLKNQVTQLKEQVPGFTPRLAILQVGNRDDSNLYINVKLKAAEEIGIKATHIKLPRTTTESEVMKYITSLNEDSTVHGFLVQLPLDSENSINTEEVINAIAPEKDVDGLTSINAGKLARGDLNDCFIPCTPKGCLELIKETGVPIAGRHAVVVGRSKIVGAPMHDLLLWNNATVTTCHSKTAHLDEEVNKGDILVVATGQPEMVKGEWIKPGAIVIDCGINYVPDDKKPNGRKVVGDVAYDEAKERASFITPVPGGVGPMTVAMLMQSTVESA

[2] = molecular target: T2, MTHFD2 recombinant human enzyme (Homo sapiens, UniProt P13995); experiment: MTHFD2 inhibition assay (NAD(P)H-Glo luminescence); conditions: for MTHFD1/MTHFD2 IC50 ratio: selectivity of MTHFD2 inhibition over MTHFD1, band
T2 sequence (P13995 36-350): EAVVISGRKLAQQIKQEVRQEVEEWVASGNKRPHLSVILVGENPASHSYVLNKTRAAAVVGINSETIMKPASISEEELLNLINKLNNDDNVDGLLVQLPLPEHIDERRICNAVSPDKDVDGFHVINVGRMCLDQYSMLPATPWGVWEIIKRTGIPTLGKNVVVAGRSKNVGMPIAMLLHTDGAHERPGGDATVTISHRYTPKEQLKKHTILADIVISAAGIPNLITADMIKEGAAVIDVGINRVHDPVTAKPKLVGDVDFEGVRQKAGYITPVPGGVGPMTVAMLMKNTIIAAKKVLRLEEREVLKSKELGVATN

IC50 [1] [nM] | IC50 [2] [nM] | MTHFD1/MTHFD2 IC50 ratio [2] | SMILES
1000 to 5000 | 100 to 1000 | H (>9.0 to 30) | COC[C@H]1CN(c2cc(C)c3c4c(c(=O)oc3c2C)CN(C(=O)c2cc(OC)c(C(=O)NS(=O)(=O)N3CCCC3)c(C(F)(F)F)c2)CC4)CCN1C [Example 154, (R)-2-methoxy-4-(8-(3-(methoxymethyl)-4-methylpiperazin-1-yl)-7,10-dimethyl-5-oxo-1,3,4,5-tetrahydro-2H-chromeno[3,4-c]pyridine-3-carbonyl)-N-(pyrrolidin-1-ylsulfonyl)-6-(trifluoromethyl)benzamide]
10 to 100 | 10 to 100 | F (<3) | COC[C@H]1CN(c2cc(C)c3c4c(c(=O)oc3c2C)CN(C(=O)c2ccc(C(=O)NS(=O)(=O)N3CCCC3)c(N3CC5CCC3C5)c2)CC4)CCN1C (stereo partly drawn) [Example 115, 2-(2-azabicyclo[2.2.1]heptan-2-yl)-4-(8-((R)-3-(methoxymethyl)-4-methylpiperazin-1-yl)-7,10-dimethyl-5-oxo-1,3,4,5-tetrahydro-2H-chromeno[3,4-c]pyridine-3-carbonyl)-N-(pyrrolidin-1-ylsulfonyl)benzamide]
> 5000 | 1000 to 5000 | F (<3) | COC[C@H]1CN(c2cc(C)c3c4c(c(=O)oc3c2C)CN(C(=O)c2cc(C(=O)NS(=O)(=O)N3CCCC3)c3c(c2F)OC2(CCC2)O3)CC4)CCN1C [Example 168, (R)-4-fluoro-5-(8-(3-(methoxymethyl)-4-methylpiperazin-1-yl)-7,10-dimethyl-5-oxo-1,3,4,5-tetrahydro-2H-chromeno[3,4-c]pyridine-3-carbonyl)-N-(pyrrolidin-1-ylsulfonyl)spiro[benzo[d][1,3]dioxole-2,1′-cyclobutane]-7-carboxamide]
1 to 10 | 1 to 10 | F (<3) | COC[C@H]1CN(c2cc(C)c3c4c(c(=O)oc3c2C)CN(C(=O)c2ccc(C(=O)NS(=O)(=O)N3CCCC3)c(O[C@H]3C[C@@H]5C[C@@H]5C3)c2F)CC4)CCN1C [Example 66, 2-(((1R,3s,5S)-bicyclo[3.1.0]hexan-3-yl)oxy)-3-fluoro-4-(8-((R)-3-(methoxymethyl)-4-methylpiperazin-1-yl)-7,10-dimethyl-5-oxo-1,3,4,5-tetrahydro-2H-chromeno[3,4-c]pyridine-3-carbonyl)-N-(pyrrolidin-1-ylsulfonyl)benzamide]
10 to 100 | 10 to 100 | G (^ 3 to 9.0) | CCCOc1c(C(=O)NS(=O)(=O)N2CCCC2)ccc(C(=O)N2CCc3c(c(=O)oc4c(C)c(N5CCN(C)[C@@H](COC)C5)cc(C)c34)C2)c1F [Example 205, (R)-3-fluoro-4-(8-(3-(methoxymethyl)-4-methylpiperazin-1-yl)-7,10-dimethyl-5-oxo-1,3,4,5-tetrahydro-2H-chromeno[3,4-c]pyridine-3-carbonyl)-2-propoxy-N-(pyrrolidin-1-ylsulfonyl)benzamide]

The next lines start with the compound.

SMILES | IC50 [1] [nM] | IC50 [2] [nM] | MTHFD1/MTHFD2 IC50 ratio [2]
COC[C@H]1CN(c2cc(C)c3c4c(c(=O)oc3c2C)CN(C(=O)c2ccc(C(=O)NS(=O)(=O)N(C)C)c(N3C5CCC3CC5)c2)CC4)CCN1C [Example 49, (R)-2-(7-azabicyclo[2.2.1]heptan-7-yl)-N-(N,N-dimethylsulfamoyl)-4-(8-(3-(methoxymethyl)-4-methylpiperazin-1-yl)-7,10-dimethyl-5-oxo-1,3,4,5-tetrahydro-2H-chromeno[3,4-c]pyridine-3-carbonyl)benzamide] | 1 to 10 | 1 to 10 | F (<3)
COC[C@H]1CN(c2cc(C)c3c4c(c(=O)oc3c2C)CN(C(=O)c2cc(F)c(C(=O)NS(=O)(=O)N(C)C)c(N3CC5CC5C3)c2)CC4)CCN1C (stereo partly drawn) [Example 28, 2-(3-azabicyclo[3.1.0]hexan-3-yl)-N-(N,N-dimethylsulfamoyl)-6-fluoro-4-(8-((R)-3-(methoxymethyl)-4-methylpiperazin-1-yl)-7,10-dimethyl-5-oxo-1,3,4,5-tetrahydro-2H-chromeno[3,4-c]pyridine-3-carbonyl)benzamide] | 1 to 10 | 1 to 10 | F (<3)
COC[C@H]1CN(c2ccc3c4c(c(=O)oc3c2C)CN(C(=O)c2ccc(C(=O)NS(=O)(=O)C3(C)CC3)c(OC3CCC3)c2F)CC4)CCN1C [Example 42, (R)-2-cyclobutoxy-3-fluoro-4-(8-(3-(methoxymethyl)-4-methylpiperazin-1-yl)-7-methyl-5-oxo-1,3,4,5-tetrahydro-2H-chromeno[3,4-c]pyridine-3-carbonyl)-N-((1-methylcyclopropyl)sulfonyl)benzamide] | 1 to 10 | 1 to 10 | G (^ 3 to 9.0)
COC[C@@H]1CN(c2ccc3c4c(c(=O)oc3c2C)CN(C(=O)c2ccc(C(=O)NS(=O)(=O)N3CCCC3)c(OC3CCC3)c2F)CC4)CCN1C [Example 162, (S)-2-cyclobutoxy-3-fluoro-4-(8-(3-(methoxymethyl)-4-methylpiperazin-1-yl)-7-methyl-5-oxo-1,3,4,5-tetrahydro-2H-chromeno[3,4-c]pyridine-3-carbonyl)-N-(pyrrolidin-1-ylsulfonyl)benzamide] | 100 to 1000 | 100 to 1000 | F (<3)
COC[C@H]1CN(c2cc(C)c3c4c(c(=O)oc3c2C)CN(C(=O)c2ccc(C(=O)NS(=O)(=O)N(C)C)c(OC3CCC3)c2C)CC4)CCN1C [Example 179] | 100 to 1000 | 10 to 100 | G (^ 3 to 9.0)
COC[C@H]1CN(c2cc(Cl)c3c4c(c(=O)oc3c2C)CN(C(=O)c2cc(N(C)C)c(C(=O)NS(=O)(=O)N3CCC5(COC5)C3)cc2F)CC4)CCN1C [Example 273, (R)-N-((2-oxa-6-azaspiro[3.4]octan-6-yl)sulfonyl)-4-(10-chloro-8-(3-(methoxymethyl)-4-methylpiperazin-1-yl)-7-methyl-5-oxo-1,3,4,5-tetrahydro-2H-chromeno[3,4-c]pyridine-3-carbonyl)-2-(dimethylamino)-5-fluorobenzamide] | 100 to 1000 | 10 to 100 | H (>9.0 to 30)
COC[C@H]1CN(c2cc(Cl)c3c4c(c(=O)oc3c2C)CN(C(=O)c2cc(N(C)C)c(C(=O)NS(=O)(=O)N3CCC[C@@H]3C(F)(F)F)cc2F)CC4)CCN1C [Example 278, 4-(10-chloro-8-((R)-3-(methoxymethyl)-4-methylpiperazin-1-yl)-7-methyl-5-oxo-1,3,4,5-tetrahydro-2H-chromeno[3,4-c]pyridine-3-carbonyl)-2-(dimethylamino)-5-fluoro-N-(((R)-2-(trifluoromethyl)pyrrolidin-1-yl)sulfonyl)benzamide] | 100 to 1000 | 10 to 100 | H (>9.0 to 30)
CCOC[C@H]1CN(c2ccc3c4c(c(=O)oc3c2C)CN(C(=O)c2ccc(C(=O)NS(=O)(=O)N3CCCC3)c(OC3CCC3)c2F)CC4)CCN1C [Example 143, (R)-2-cyclobutoxy-4-(8-(3-(ethoxymethyl)-4-methylpiperazin-1-yl)-7-methyl-5-oxo-1,3,4,5-tetrahydro-2H-chromeno[3,4-c]pyridine-3-carbonyl)-3-fluoro-N-(pyrrolidin-1-ylsulfonyl)benzamide] | 100 to 1000 | 10 to 100 | G (^ 3 to 9.0)
